Test results published in patent US20040013631A1, “Skin care cosmetic compositions containing carboxyalkylates of branched alcohols and/or alkoxylates thereof” (Unilever Home & Personal Care USA, Division of Conopco, priority 2002, published 2004).
pIC50: −log10 of the molar value. Read-outs that look alike come from different tables or passages of the source. Marks after values point to notes of the source that are not given here.

Legend:
human sebocytes = test: Inhibition of sebocyte lipogenesis (14C-acetate label remaining in sebocytes); type: cell-based; settings: for pIC50: read-out: IC 50 (concentration which provides a 50% sebum suppression relative to the control)
[1] = Light absorbency (color) at 340-500 nm, Spectramax 340 spectrophotometer; type: physicochemical; settings: from absorbency values at 340-500 nm
[2] = 20 hour incubation, 96 well plate
[3] = Homo sapiens, 20 hour incubation, 96 well plate

## C13 isoalcohol propionitrile [Compound 2]
Human sebocytes; [2]
  pIC50: < 4.00

## Iso-tridecyl carboxymethylate [TDCM]
Human sebocytes; 1 μM test agent, 20 hour incubation, 96 well plate, lower = greater inhibition of lipogenesis
  radioactive label remaining in the sebocytes, % of Control: 84.8* %
Human sebocytes; 10 μM test agent, 20 hour incubation, 96 well plate, lower = greater inhibition of lipogenesis
  radioactive label remaining in the sebocytes, % of Control: 43.4* %
Human sebocytes; 100 μM test agent, 20 hour incubation, 96 well plate, lower = greater inhibition of lipogenesis
  radioactive label remaining in the sebocytes, % of Control: 22.8* %

## O=S1(=O)OC(c2ccc(O)cc2)(c2ccc(O)cc2)c2ccccc21 [Phenol Red]
Human sebocytes; Homo sapiens, 20 h, read-out: radioactive label remaining in the sebocytes, % of Control
  activity at 100 µM: 46.3%

## C13 isoalcohol carboxyethylate (TDCE) [Compound 1]
Human sebocytes; 1 µM
  radioactive label remaining in the sebocytes, % of Control: 48.7* %
Human sebocytes; 10 µM
  radioactive label remaining in the sebocytes, % of Control: 34.6* %
Human sebocytes; 100 µM
  radioactive label remaining in the sebocytes, % of Control: 11.9* %
Human sebocytes; [2]
  pIC50: 5.30
[1]
  color compared with TDCM: lighter in color

## CC(C)CCCC(C)CCCC(C)CCOCCC(=O)O (centres unmarked) [Compound 7, 3,7,11-trimethyl 1-dodecanol carboxyethylate]
Human sebocytes; [3]
  pIC50: 5.00
Human sebocytes; ratio of IC50 values of Table 3
  activity as sebum suppressant relative to the branched alcohol from which it is derived: at least 10 times

## CC(C)CCCC(C)CCCC(C)CCO (centres unmarked) [Compound 6, 3,7,11-trimethyl 1-dodecanol]
Human sebocytes; [3]
  pIC50: < 4.00

## C13 isoalcohol glycerol [Compound 5]
Human sebocytes; [2]
  pIC50: < 4.00
